From patent publication US9205077B2, “2-alkoxy-substituted dicyanopyridines and their use” (Bayer Intellectual Property GmbH, priority 2008, dated 2015)

Experiments:
Format in all cases: cell-based
adenosine A2b receptor = biological target: T1, adenosine A2b receptor (Homo sapiens, UniProt P29275); assay: Indirect determination of the adenosine agonism by way of gene expression (luciferase reporter), A2b cells; settings: CHO cells stably transfected with A2b receptor cDNA; 50% of maximum stimulation of luciferase
T1 construct: expressed in transfected cells; host or cells: CHO (Chinese Hamster Ovary) permanent line, stably transfected
T1 sequence (P29275 1-332): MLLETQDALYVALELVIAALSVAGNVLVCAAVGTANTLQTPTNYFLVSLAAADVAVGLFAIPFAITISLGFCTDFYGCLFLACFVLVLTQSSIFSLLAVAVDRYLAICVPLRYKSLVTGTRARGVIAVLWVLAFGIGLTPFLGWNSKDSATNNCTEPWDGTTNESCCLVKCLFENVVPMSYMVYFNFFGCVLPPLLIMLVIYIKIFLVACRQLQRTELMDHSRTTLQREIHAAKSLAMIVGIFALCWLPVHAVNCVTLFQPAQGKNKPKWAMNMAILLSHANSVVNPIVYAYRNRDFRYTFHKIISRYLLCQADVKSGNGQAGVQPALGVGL
Excerpt: (§1) B-1. Indirect Determination of the Adenosine Agonism by Way of Gene Expression
(§2) Cells of the CHO (Chinese Hamster Ovary) permanent line are transfected stably with the cDNA for the adenosine receptor subtypes A1, A2a and A2b. The adenosine A1 receptors are coupled to the adenylate cyclase by way of Gi proteins, while the adenosine A2a and A2b receptors are coupled by way of Gs proteins. In correspondence with this, the formation of cAMP in the cell is inhibited or stimulated, respectively. After that, expression of the luciferase is modulated by way of a cAMP-dependent promoter. The luciferase test is optimized, with the aim of high sensitivity and reproducibility, low variance and good suitability for implementation on a robot system, by varying several test parameters, such as cell density, duration of the growth phase and the test incubation, forskolin concentration and medium composition. The following test protocol is used for pharmacologically characterizing cells and for the robot-assisted substance screening:
(§3) The stock cultures are grown, at 37° C. and under 5% CO2, in DMEM/F12 medium containing 10% FCS (fetal calf serum) and in each case split 1:10 after 2-3 days. Test cultures are seeded in 384-well plates with 2000 cells per well and grown at 37° C. for approx. 48 hours. The medium is then replaced with a physiological sodium chloride solution (130 mM sodium chloride, 5 mM potassium chloride, 2 mM calcium chloride, 20 mM HEPES, 1 mM magnesium chloride hexahydrate, 5 mM sodium bicarbonate, pH 7.4). The substances to be tested, which are dissolved in DMSO, are pipetted into the test cultures (maximum final concentration of DMSO in the test mixture: 0.5%) in a dilution series of from 5×10^−11 M to 3×10^−6 M (final concentration). 10 minutes later, forskolin is added to the A1 cells and all the cultures are subsequently incubated at 37° C. for four hours. After that, 35 μl of a solution which is composed of 50% lysis reagent (30 mM disodium hydrogenphosphate, 10% glycerol, 3% TritonX100, 25 mM TrisHCl, 2 mM dithiotreitol (DTT), pH 7.8) and 50% luciferase substrate solution (2.5 mM ATP, 0.5 mM luciferin, 0.1 mM coenzyme A, 10 mM tricine, 1.35 mM magnesium sulphate, 15 mM DTT, pH 7.8) are added to the test cultures, which are shaken for approx. 1 minute and the luciferase activity is measured using a camera system. The EC50 values are determined, i.e., the concentrations at which 50% of the luciferase response is inhibited in the case of the A1 cell, and, respectively, 50% of the maximum stimulation with the corresponding substance is achieved in the case of the A2b and A2a cells. […] Pharmacol., 357, 1-9 (1998)).

adenosine A1 receptor = biological target: T2, adenosine A1 receptor (Homo sapiens, UniProt P30542); assay: Indirect determination of the adenosine agonism by way of gene expression (luciferase reporter), A1 cells; settings: CHO cells stably transfected with A1 receptor cDNA; 1 μM forskolin; 50% inhibition of luciferase response
T2 construct: expressed in transfected cells; host or cells: CHO (Chinese Hamster Ovary) permanent line, stably transfected
T2 sequence (P30542 1-326): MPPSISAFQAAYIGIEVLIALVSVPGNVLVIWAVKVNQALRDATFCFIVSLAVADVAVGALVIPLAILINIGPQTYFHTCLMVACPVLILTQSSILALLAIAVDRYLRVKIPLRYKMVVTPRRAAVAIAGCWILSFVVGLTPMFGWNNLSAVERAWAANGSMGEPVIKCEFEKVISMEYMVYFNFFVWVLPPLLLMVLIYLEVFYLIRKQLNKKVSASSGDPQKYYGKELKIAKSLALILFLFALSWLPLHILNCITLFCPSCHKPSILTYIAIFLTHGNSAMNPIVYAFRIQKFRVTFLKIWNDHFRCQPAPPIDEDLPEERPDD
Excerpt: as §1, §2, §3

adenosine A2a receptor = biological target: T3, adenosine A2a receptor (Homo sapiens, UniProt P29274); assay: Indirect determination of the adenosine agonism by way of gene expression (luciferase reporter), A2a cells; settings: CHO cells stably transfected with A2a receptor cDNA; 50% of maximum stimulation of luciferase
T3 construct: expressed in transfected cells; host or cells: CHO (Chinese Hamster Ovary) permanent line, stably transfected
T3 sequence (P29274 whole entry): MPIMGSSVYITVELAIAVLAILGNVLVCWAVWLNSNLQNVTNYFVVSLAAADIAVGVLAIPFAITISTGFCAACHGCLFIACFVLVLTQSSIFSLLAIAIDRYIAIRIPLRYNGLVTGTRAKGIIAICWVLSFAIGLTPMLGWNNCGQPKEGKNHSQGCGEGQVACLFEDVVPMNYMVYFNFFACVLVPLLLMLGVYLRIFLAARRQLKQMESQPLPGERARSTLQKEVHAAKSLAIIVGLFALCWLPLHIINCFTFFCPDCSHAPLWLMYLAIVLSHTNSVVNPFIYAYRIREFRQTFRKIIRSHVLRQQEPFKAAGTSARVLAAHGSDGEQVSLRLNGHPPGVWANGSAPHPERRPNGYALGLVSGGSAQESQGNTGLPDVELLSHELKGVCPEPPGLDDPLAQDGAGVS
Excerpt: as §1, §2, §3

EC50 (adenosine A2b receptor)	EC50 (adenosine A1 receptor)	EC50 (adenosine A2a receptor)	SMILES
105 nM	0.3 nM	1220 nM	COc1nc(SCc2csc(-c3ccc(Cl)cc3)n2)c(C#N)c(-c2ccc(OCCO)cc2)c1C#N [Example 8, 2-({[2-(4-Chlorophenyl)-1,3-thiazol-4-yl]methyl}sulphanyl)-4-[4-(2-hydroxyethoxy)phenyl]-6-methoxypyridine-3,5-dicarbonitrile]
534 nM	0.7 nM	> 3000 nM	N#Cc1c(OCCCO)nc(SCc2csc(-c3ccc(Cl)cc3)n2)c(C#N)c1-c1ccccc1 [Example 2, 2-({[2-(4-Chlorophenyl)-1,3-thiazol-4-yl]methyl}sulphanyl)-6-(3-hydroxypropoxy)-4-phenylpyridine-3,5-dicarbonitrile]
28.6 nM	73.2 nM	> 3000 nM	COc1nc(SCc2c[nH]cn2)c(C#N)c(-c2ccc(OCCO)cc2)c1C#N [Example 21, Formic acid 4-[4-(2-hydroxyethoxy)phenyl]-2-[(1H-imidazol-4-ylmethyl)sulphanyl]-6-methoxypyridine-3,5-dicarbonitrile (1:1)]
> 3000 nM	1.2 nM	547 nM	COc1nc(SCc2cccnc2)c(C#N)c(-c2ccc(OCCO)cc2)c1C#N [Example 12, 4-[4-(2-Hydroxyethoxy)phenyl]-2-methoxy-6-[(pyridin-3-ylmethyl)sulphanyl]pyridine-3,5-dicarbonitrile]
> 3000 nM	0.8 nM	1110 nM	COc1cccc(CSc2nc(OC)c(C#N)c(-c3ccc(OCCO)cc3)c2C#N)c1 [Example 11, 4-[4-(2-Hydroxyethoxy)phenyl]-2-methoxy-6-[(3-methoxybenzyl)sulphanyl]pyridine-3,5-dicarbonitrile]
> 3000 nM	0.8 nM	527 nM	CCOc1nc(SCc2csc(-c3ccc(Cl)cc3)n2)c(C#N)c(-c2ccc(OCCO)cc2)c1C#N [Example 16, 2-({[2-(4-Chlorophenyl)-1,3-thiazol-4-yl]methyl}sulphanyl)-6-ethoxy-4-[4-(2-hydroxyethoxy)-phenyl]pyridine-3,5-dicarbonitrile]
142 nM	2.1 nM	1260 nM	COc1nc(SCc2csc(-c3ccc(Cl)cc3)n2)c(C#N)c(-c2ccc(OC[C@@H](O)CO)cc2)c1C#N [Example 22, 2-({[2-(4-Chlorophenyl)-1,3-thiazol-4-yl]methyl}sulphanyl)-4-(4-{[(2S)-2,3-dihydroxypropyl]-oxy}phenyl)-6-methoxypyridine-3,5-dicarbonitrile]
> 3000 nM	4.8 nM	> 3000 nM	CCOc1nc(SCc2coc(-c3ccc(Cl)cc3)n2)c(C#N)c(-c2ccc(OCCO)cc2)c1C#N [Example 15, 2-({[2-(4-Chlorophenyl)-1,3-oxazol-4-yl]methyl}sulphanyl)-6-ethoxy-4-[4-(2-hydroxyethoxy)-phenyl]pyridine-3,5-dicarbonitrile]
263 nM	0.6 nM	689 nM	N#Cc1c(OCCCO)nc(SCc2csc(-c3ccc(Cl)cc3)n2)c(C#N)c1-c1ccc(OCCO)cc1 [Example 3, 2-({[2-(4-Chlorophenyl)-1,3-thiazol-4-yl]methyl}sulphanyl)-4-[4-(2-hydroxyethoxy)phenyl]-6-(3-hydroxypropoxy)pyridine-3,5-dicarbonitrile]
> 3000 nM	1.3 nM	> 3000 nM	CCCOc1nc(SCc2csc(-c3ccc(Cl)cc3)n2)c(C#N)c(-c2ccccc2)c1C#N [Example 1, 2-({[2-(4-Chlorophenyl)-1,3-thiazol-4-yl]methyl}sulphanyl)-4-phenyl-6-propoxypyridine-3,5-dicarbonitrile]
> 3000 nM	5.7 nM	> 3000 nM	N#Cc1c(OCCCO)nc(SCc2csc(-c3ccc(Cl)cc3)n2)c(C#N)c1-c1cncs1 [Example 6, 2-({[2-(4-Chlorophenyl)-1,3-thiazol-4-yl]methyl}sulphanyl)-6-(3-hydroxypropoxy)-4-(1,3-thiazol-5-yl)pyridine-3,5-dicarbonitrile]
> 3000 nM	0.3 nM	1740 nM	CNC(=O)c1cc(CSc2nc(OCCO)c(C#N)c(-c3ccccc3)c2C#N)ccn1 [Example 18, 4-({[3,5-Dicyano-6-(2-hydroxyethoxy)-4-phenylpyridin-2-yl]thio}methyl)-N-methylpyridine-2-carboxamide]
177 nM	0.5 nM	685 nM	N#Cc1c(OCCO)nc(SCc2csc(-c3ccc(Cl)cc3)n2)c(C#N)c1-c1ccc(OCCO)cc1 [Example 19]
